US20260232749A1, “Plant-Based Compositions And Methods For Modulation of Inflammatory Response Post Viral Infection” (VDF Futureceuticals, Inc., priority 2023, published 2026)
Entries after “also recorded” stand apart in the source; their conditions may differ.

Experiments:
[1] = target: iNOS (Homo sapiens, UniProt P35228); experiment: eCMA-iNOS: iNOS-dependent ROS generation in capillary blood (ESR) after single oral dose; type: in vivo; details: over three hours after single oral dose (50 mg blend or 1,000 mg vitamin C); FIG. 2
[2] = target: T1, NOX2 (Homo sapiens, UniProt P04839); experiment: eCMA-PHAGO-NOX2: NOX2-dependent ROS generation in capillary blood (ESR) after single oral dose; type: in vivo; details: single oral dose (50 mg blend or 1,000 mg vitamin C); subjects 18-24 days after moderate COVID-19; 30-180 min after administration
T1 sequence (P04839 2-570 limits assumed): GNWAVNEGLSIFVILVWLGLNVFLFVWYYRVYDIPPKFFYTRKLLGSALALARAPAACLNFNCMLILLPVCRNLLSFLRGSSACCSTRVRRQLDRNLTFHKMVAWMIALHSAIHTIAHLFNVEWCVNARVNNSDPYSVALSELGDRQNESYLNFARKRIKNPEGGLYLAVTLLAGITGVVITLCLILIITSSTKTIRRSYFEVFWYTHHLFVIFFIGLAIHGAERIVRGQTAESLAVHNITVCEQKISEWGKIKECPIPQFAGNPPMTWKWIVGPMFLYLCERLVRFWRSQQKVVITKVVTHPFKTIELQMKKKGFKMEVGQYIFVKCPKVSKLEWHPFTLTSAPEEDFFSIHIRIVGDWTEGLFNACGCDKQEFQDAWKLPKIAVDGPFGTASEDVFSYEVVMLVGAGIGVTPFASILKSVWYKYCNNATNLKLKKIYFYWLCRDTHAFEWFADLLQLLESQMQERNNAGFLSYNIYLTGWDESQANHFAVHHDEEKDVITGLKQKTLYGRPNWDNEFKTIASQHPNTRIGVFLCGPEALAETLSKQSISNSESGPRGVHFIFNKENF
T1 sequence (P13498 2-195 partner limits assumed): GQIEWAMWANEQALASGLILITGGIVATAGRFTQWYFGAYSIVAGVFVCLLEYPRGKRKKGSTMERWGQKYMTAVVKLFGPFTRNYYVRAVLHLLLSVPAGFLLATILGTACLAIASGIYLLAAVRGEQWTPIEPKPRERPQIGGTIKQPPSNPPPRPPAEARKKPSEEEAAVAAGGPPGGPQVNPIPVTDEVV

[3] = tested on: TNF-α induced H2O2 formation; experiment: inflammatory resistance assay: ex vivo TNF-α induced extracellular H2O2 generation by blood cells; type: in vivo, human; details: single oral dose 50 mg blend or 1,000 mg vitamin C

Question: What does the source list for `O=C1O[C@H]([C@@H](O)CO)C(O)=C1O` [vitamin C]?
Answer: change in iNOS dependent cellular metabolic activity, in words [1]: no notable effect; inhibition of NOX2-dependent ROS generation [2]: 45%; suppression of extracellular H2O2 induced by TNF-α, in words ([3]; TNF-α 40 ng/ml (comparable to acute viral infection), FIG. 5A): similarly suppress; reduction of high dose TNFα-induced H2O2 formation, in words ([3]; TNFα 200 ng/ml ("Cytokine Storm"), FIG. 5B): equal potential to reduce; also recorded: similar
